According to patent US10900014B2, “Long-term storage medium for culturing obligate anaerobic bacteria or microaerobic bacteria under aerobic environment, and method of detecting obligate anaerobic bacteria or microaerobic bacteria using said medium” (Kanto Kagaku Kabushiki Kaisha, priority 2015, dated 2021):
Values joined by “and” are separate entries in the source; they are usually repeats but may differ in a detail not shown here. Identical values can stand only once. Like-named read-outs stand apart in the source and are kept apart here.

Test system: C. difficile
Type: cell-based
Conditions: 37° C. 24 h; for concentration added at which a mass of bacteria and the surrounding medium exhibited yellow color / concentration added at which a mass of bacteria exhibited yellow color / concentration added at which a mass of bacteria was found: added to medium of Table 1

Structure (SMILES)	concentration added at which a mass of bacteria and the surrounding medium exhibited yellow color	concentration added at which a mass of bacteria exhibited yellow color	concentration added at which a mass of bacteria was found	Yellow coloration degree (ascorbic acid added 0.075 g/L)	Yellow coloration degree (ascorbic acid added 0.16 g/L)	Yellow coloration degree (ascorbic acid added 0.32 g/L)	Yellow coloration degree (ascorbic acid added 0.64 g/L)	Yellow coloration degree (ascorbic acid added 1.8 g/L)	Yellow coloration degree (ascorbic acid added 2.7 g/L)	Yellow coloration degree (ascorbic acid added 3.6 g/L)	Yellow coloration degree (ascorbic acid added 4.5 g/L)	Yellow coloration degree (dithiothreitol added 0.075 g/L)	Yellow coloration degree (dithiothreitol added 0.16 g/L)	Yellow coloration degree (dithiothreitol added 0.32 g/L)	Yellow coloration degree (dithiothreitol added 0.60 g/L)	Yellow coloration degree (dithiothreitol added 0.90 g/L)	Yellow coloration degree (dithiothreitol added 1.2 g/L)	Yellow coloration degree (dithiothreitol added 1.5 g/L)	Yellow coloration degree (dithiothreitol added 1.8 g/L)
O=C1O[C@H]([C@@H](O)CO)C(O)=C1O [ascorbic acid]	0.32 to 1.8 g/L	0.16 to 2.7 g/L	0.075 to 3.6 g/L	1	2	3	3	3	2	1	0	–	–	–	–	–	–	–	–
O[C@H](CS)[C@H](O)CS (racemic) [dithiothreitol]	0.6 g/L and 0.9 g/L	0.16 to 1.2 g/L	0.075 to 1.5 g/L	–	–	–	–	–	–	–	–	1	2	2	3	3	2	1	0
